Data taken from EP2607478A1, “Phenanthroline treated MSC” (Universiteit Twente, priority 2011, dated 2013).
Where a name gives a salt, the structure may show the parent alone.

System: MSCs
Experiment: Gene expression analysis by real-time qPCR in treated MSCs
Type: cell-based, Human
Settings: primary MSCs, 1 nM, 10 nM and 1 uM, 2 days, qPCR (Figure 7)
Description: MSCs were seeded in triplicate in 6-well plates at 5000 cells/cm^2 and allowed to attach for 10-15 hours in proliferation medium. Upon reaching near confluency, cells were treated as described above. After 2 days of treatment and 2 subsequent days of incubation with fresh medium, cells were lysed immediately with TRIzol. RNA was isolated using a Bioke RNA II nucleospin RNA isolation kit (Machery Nagel) and RNA concentrations were measured using an ND100 spectrophotometer (Nanodrop technologies, USA). cDNA was synthesized from 100 ng of RNA, using iScript (BioRad) according to the manufacturer's protocol. For qualitative PCR, a master mix, containing distilled water, forward primer, reverse primer (Sigma Genosys), BSA, and SYBR green I mix (all from Invitrogen) was prepared. Real-time qPCR was performed in a Light-Cycler (Roche). Light-Cycler data was analyzed using the fit points method of Light-Cycler software. The baseline was set at the lower log-linear part above baseline noise and the crossing […] (Ct value) was determined. Ct values were normalized to the 18S housekeeping gene and delta Ct (Ct, control ― Ct, sample) was used to calculate the upregulation in gene expression (53).

With CCN(CC)CCCC(C)Nc1c2ccc(Cl)cc2nc2ccc(OC)cc12 (stereo not shown) [Quinacrine hydrochloride] the VEGF gene expression was “does not affect VEGF gene expression”.
